What was measured:
[1] = molecular target: T1, MDM2 (Homo sapiens, UniProt Q00987); assay: Inhibition test of MDM2-P53 (GST-MDM2, Biotin-P53, Anti-GST-Tb, SA-XL665); assay type: binding
T1 construct: made in house
Outline: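 Compounds, serially diluted 5-fold (twelve concentrations), were shaken for 90 min at 25° C with a mix of GST-MDM2 (4 nM final), Biotin-P53, anti-GST-Tb and SA-XL665. Buffer: 1×PBS, 0.1% BSA, 5 mM DTT, 1 mM AEBSF; signal read on a microplate reader.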

[2] = test system: human osteosarcoma cell line SJSA-1; assay: Inhibition of proliferation of human osteosarcoma cell line SJSA-1 (DAPI staining, In Cell Analyzer); conditions: Homo sapiens, SJSA-1, 72 h, read-out: IC50 (nM), inhibitory activity on proliferation of human osteosarcoma cell line SJSA-1, SJSA-1, incubated 72 h

T1 sequence (Q00987 whole entry): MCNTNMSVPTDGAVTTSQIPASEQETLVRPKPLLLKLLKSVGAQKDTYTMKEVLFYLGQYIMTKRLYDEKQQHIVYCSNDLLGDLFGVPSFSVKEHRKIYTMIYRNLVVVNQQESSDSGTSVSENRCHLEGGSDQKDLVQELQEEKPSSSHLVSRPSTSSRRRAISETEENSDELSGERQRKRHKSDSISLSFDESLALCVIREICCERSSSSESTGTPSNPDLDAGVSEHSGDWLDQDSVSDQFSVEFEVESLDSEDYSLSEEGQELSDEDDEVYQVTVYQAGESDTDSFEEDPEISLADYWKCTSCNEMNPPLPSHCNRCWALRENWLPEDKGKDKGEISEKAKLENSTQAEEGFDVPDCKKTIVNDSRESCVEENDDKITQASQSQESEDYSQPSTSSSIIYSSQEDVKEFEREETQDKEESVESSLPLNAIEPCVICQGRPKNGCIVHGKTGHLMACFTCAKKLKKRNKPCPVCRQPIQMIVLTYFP

Row | SMILES | IC50 [1] | IC50 [2]
1 | COc1cc(N)c(F)cc1-c1nc2c(n1C(C)C)[C@@]1(C(=O)Nc3cc(Cl)ccc31)N(c1cc(Cl)ccc1C)C2=O [Example S-75, (S)-2′-(4-amino-5-fluoro-2-methoxyphenyl)-6-chloro-5′-(5-chloro-2-methylphenyl)-3′-isopropyl-3′H-spiro[dihydroindole-3,4′-pyrrolo[3,4-d]imidazole]-2,6′(5′H)-dione] | 0.97 nM | 9.84 nM
2 | COc1c(F)cccc1-c1nc2c(n1C(C)C)[C@@]1(C(=O)Nc3cc(Cl)ccc31)N(c1cc(Cl)ccc1C)C2=O [Example S-76, (S)-6-chloro-5′-(5-chloro-2-methylphenyl)-2′-(3-fluoro-2-methoxyphenyl)-3′-isopropyl-3′H-spiro[dihydroindole-3,4′-pyrrolo[3,4-d]imidazole]-2,6′(5′H)-dione] | 4.23 nM | 309 nM
3 | COc1cc(C(N)=O)ccc1-c1nc2c(n1C(C)C)[C@@]1(C(=O)Nc3cc(Cl)ccc31)N(c1cc(Cl)ccc1C)C2=O [Example S-77, (S)-4-(6-chloro-5′-(5-chloro-2-methylphenyl)-3′-isopropyl-2,6′-dioxo-5′,6′-dihydro-3′H-spiro[dihydroindole-3,4′-pyrrolo[3,4-d]imidazole]-2′-yl)-3-methoxybenzamide] | 1.86 nM | 535 nM
4 | COc1cc(N(C)C)c(F)cc1-c1nc2c(n1C(C)C)[C@@]1(C(=O)Nc3cc(Cl)ccc31)N(c1cc(Cl)ccc1C)C2=O [Example S-78] | 1.42 nM | 7.88 nM
5 | COc1cccc(OC)c1-c1nc2c(n1C(C)C)[C@@]1(C(=O)Nc3cc(Cl)ccc31)N(c1cc(Cl)ccc1C)C2=O [Example S-79, (S)-6-chloro-5′-(5-chloro-2-methylphenyl)-2′-(2,6-dimethoxyphenyl)-3′-isopropyl-3′H-spiro[dihydroindole-3,4′-pyrrolo[3,4-d]imidazole]-2,6′(5′H)-dione] | 1.89 nM | 72.4 nM
6 | COc1ccc(-c2nc3c(n2C(C)C)[C@@]2(C(=O)Nc4cc(Cl)ccc42)N(c2cc(Cl)ccc2F)C3=O)c(OC)c1 [Example S-80, (S)-6-chloro-5′-(5-chloro-2-fluorophenyl)-2′-(2,4-dimethoxyphenyl)-3′-isopropyl-3′H-spiro[dihydroindole-3,4′-pyrrolo[3,4-d]imidazole]-2,6′(5′H)-dione] | 2.56 nM | 16.9 nM
7 | COc1cc(N(C)C)ccc1-c1nc2c(n1C(C)C)[C@@]1(C(=O)Nc3cc(Cl)ccc31)N(c1cc(Cl)ccc1F)C2=O [Example S-81, (S)-6-chloro-5′-(5-chloro-2-fluorophenyl)-2′-(4-(dimethylamino)-2-methoxyphenyl)-3′-isopropyl-3′H-spiro[dihydroindole-3,4′-pyrrolo[3,4-d]imidazole]-2,6′(5′H)-dione] | 1.23 nM | 82.8 nM
8 | COc1nc(N(C)C)ncc1-c1nc2c(n1C(C)C)[C@@]1(C(=O)Nc3cc(Cl)ccc31)N(c1cc(Cl)ccc1C)C2=O [Example S-82, (S)-6-chloro-5′-(5-chloro-2-methylphenyl)-2′-(2-(dimethylamino)-4-methoxypyrimidin-5-yl)-3′-isopropyl-3′H-spiro[dihydroindole-3,4′-pyrrolo[3,4-d]imidazole]-2,6′(5′H)-dione] | 1.16 nM | 7.43 nM
9 | COc1cc(OC)c(-c2nc3c(n2C(C)C)[C@@]2(C(=O)Nc4cc(Cl)ccc42)N(c2cc(Cl)ccc2C)C3=O)cc1C [Example S-83, (S)-6-chloro-5′-(5-chloro-2-methylphenyl)-2′-(2,4-dimethoxy-5-methylphenyl)-3′-isopropyl-3′H-spiro[dihydroindole-3,4′-pyrrolo[3,4-d]imidazole]-2,6′(5′H)-dione] | 2.23 nM | 6.21 nM
10 | COc1cc(C(F)(F)F)ccc1-c1nc2c(n1C(C)C)[C@@]1(C(=O)Nc3cc(Cl)ccc31)N(c1cc(Cl)ccc1C)C2=O [Example S-85, (S)-6-chloro-5′-(5-chloro-2-methylphenyl)-3′-isopropyl-2′-(2-methoxy-4-(trifluoromethyl)phenyl)-3′H-spiro[dihydroindole-3,4′-pyrrolo[3,4-d]imidazole]-2,6′(5′H)-dione] | 3.3 nM | 40.2 nM
11 | COc1cc(C2CC2)ccc1-c1nc2c(n1C(C)C)[C@@]1(C(=O)Nc3cc(Cl)ccc31)N(c1cc(Cl)ccc1C)C2=O [Example S-86, (S)-6-chloro-5′-(5-chloro-2-methylphenyl)-2′-(4-cyclopropyl-2-methoxyphenyl)-3′-isopropyl-3′H-spiro[dihydroindole-3,4′-pyrrolo[3,4-d]imidazole]-2,6′(5′H)-dione] | 2.59 nM | 21.2 nM
12 | COc1cc(OC(F)(F)F)ccc1-c1nc2c(n1C(C)C)[C@@]1(C(=O)Nc3cc(Cl)ccc31)N(c1cc(Cl)ccc1C)C2=O [Example S-87, (S)-6-chloro-5′-(5-chloro-2-methylphenyl)-3′-isopropyl-2′-(2-methoxy-4-(trifluoromethoxy)phenyl)-3′H-spiro[dihydroindole-3,4′-pyrrolo[3,4-d]imidazole]-2,6′(5′H)-dione] | 3.31 nM | 11.1 nM
13 | CCOc1ccc(-c2nc3c(n2C(C)C)[C@@]2(C(=O)Nc4cc(Cl)ccc42)N(c2cc(Cl)ccc2C)C3=O)c(OC)c1 [Example S-88, (S)-6-chloro-5′-(5-chloro-2-methylphenyl)-2′-(4-ethoxy-2-methoxyphenyl)-3′-isopropyl-3′H-spiro[dihydroindole-3,4′-pyrrolo[3,4-d]imidazole]-2,6′(5′H)-dione] | 2.34 nM | 77.3 nM
14 | COc1cc(C(C)C)ccc1-c1nc2c(n1C(C)C)[C@@]1(C(=O)Nc3cc(Cl)ccc31)N(c1cc(Cl)cnc1C)C2=O [Example S-89, (S)-6-chloro-5′-(5-chloro-2-methylpyridin-3-yl)-3′-isopropyl-2′-(4-isopropyl-2-methoxyphenyl)-3′H-spiro[dihydroindole-3,4′-pyrrolo[3,4-d]imidazole]-2,6′(5′H)-dione] | 4.32 nM | 43.2 nM
15 | COc1nc(N)ncc1-c1nc2c(n1C(C)C)[C@@]1(C(=O)Nc3cc(Cl)ccc31)N(c1cc(Cl)ccc1C)C2=O [Example S-90, (S)-2′-(2-amino-4-methoxypyrimidin-5-yl)-6-chloro-5′-(5-chloro-2-methylphenyl)-3′-isopropyl-3′H-spiro[dihydroindole-3,4′-pyrrolo[3,4-d]imidazole]-2,6′(5′H)-dione] | 1.38 nM | 255 nM
16 | COc1cc(N(C)C)c(C)cc1-c1nc2c(n1C(C)C)[C@@]1(C(=O)Nc3cc(Cl)ccc31)N(c1cc(Cl)ccc1C)C2=O [Example S-91, (S)-6-chloro-5′-(5-chloro-2-methylphenyl)-2′-(4-(dimethylamino)-2-methoxy-5-methylphenyl)-3′-isopropyl-3′H-spiro[dihydroindole-3,4′-pyrrolo[3,4-d]imidazole]-2,6′(5′H)-dione] | 3.56 nM | 14.4 nM
17 | COc1cc(OC)c(-c2nc3c(n2C(C)C)[C@@]2(C(=O)Nc4cc(Cl)ccc42)N(c2cc(Cl)ccc2C)C3=O)cc1F [Example S-92, (S)-6-chloro-5′-(5-chloro-2-methylphenyl)-2′-(5-fluoro-2,4-dimethoxyphenyl)-3′-isopropyl-3′H-spiro[dihydroindole-3,4′-pyrrolo[3,4-d]imidazole]-2,6′(5′H)-dione] | 1.72 nM | 19.9 nM
18 | CCOc1ccc(-c2nc3c(n2C(C)C)[C@@]2(C(=O)Nc4cc(Cl)ccc42)N(c2cc(Cl)ccc2F)C3=O)c(OC)c1 [Example S-94, (S)-6-chloro-5′-(5-chloro-2-fluorophenyl)-2′-(4-ethoxy-2-methoxyphenyl)-3′-isopropyl-3′H-spiro[dihydroindole-3,4′-pyrrolo[3,4-d]imidazole]-2,6′(5′H)-dione] | 4.72 nM | 309 nM
19 | COc1cc(OC(C)C)ncc1-c1nc2c(n1C(C)C)[C@@]1(C(=O)Nc3cc(Cl)ccc31)N(c1cccc(Cl)c1)C2=O [Example S-95, (S)-6-chloro-5′-(3-chlorophenyl)-2′-(6-isopropoxy-4-methoxypyridin-3-yl)-3′-isopropyl-3′H-spiro[dihydroindole-3,4′-pyrrolo[3,4-d]imidazole]-2,6′(5′H)-dione] | 1.92 nM | 49.5 nM
20 | CCOc1ncc(-c2nc3c(n2C(C)C)[C@@]2(C(=O)Nc4cc(Cl)ccc42)N(c2cc(Cl)ccc2F)C3=O)c(OC)n1 [Example S-97, (S)-6-chloro-5′-(5-chloro-2-fluorophenyl)-2′-(2-ethoxy-4-methoxypyrimidin-5-yl)-3′-isopropyl-3′H-spiro[dihydroindole-3,4′-pyrrolo[3,4-d]imidazole]-2,6′(5′H)-dione] | 3.94 nM | 167 nM
21 | CCN(C)c1ccc(-c2nc3c(n2C(C)C)[C@@]2(C(=O)Nc4cc(Cl)ccc42)N(c2cc(Cl)ccc2C)C3=O)c(OC)c1 [Example S-99, (S)-6-chloro-5′-(5-chloro-2-methylphenyl)-2′-(4-(ethyl(methyl)amino)-2-methoxyphenyl)-3′-isopropyl-3′H-spiro[dihydroindole-3,4′-pyrrolo[3,4-d]imidazole]-2,6′(5′H)-dione] | 2.56 nM | 34.2 nM
22 | CCOc1ccc(-c2nc3c(n2C(C)C)[C@@]2(C(=O)Nc4cc(Cl)ccc42)N(c2cccc(Cl)c2)C3=O)c(OC)c1 [Example S-100, (S)-6-chloro-5′-(3-chlorophenyl)-2′-(4-ethoxy-2-methoxyphenyl)-3′-isopropyl-3′H-spiro[dihydroindole-3,4′-pyrrolo[3,4-d]imidazole]-2,6′(5′H)-dione] | 3.14 nM | 1210 nM
23 | COc1cc(C(C)(C)C)ccc1-c1nc2c(n1C(C)C)[C@@]1(C(=O)Nc3cc(Cl)ccc31)N(c1cc(Cl)ccc1C)C2=O [Example S-101, (S)-2′-(4-(tert-butyl)-2-methoxyphenyl)-6-chloro-5′-(5-chloro-2-methylphenyl)-3′-isopropyl-3′H-spiro[dihydroindole-3,4′-pyrrolo[3,4-d]imidazole]-2,6′(5′H)-dione] | 9.86 nM | 48.5 nM

Source: patent US11339171B2, “MDM2 inhibitors” (Gan & Lee Pharmaceuticals, priority 2017, dated 2022)
